In paper PMC10846240, “Pharmacokinetic/pharmacodynamic integration of amphenmulin: a novel pleuromutilin derivative against Mycoplasma gallisepticum” (Microbiology Spectrum, 2023):
Converted amounts (≈) assume the structure as drawn.

How the values were obtained:
[1] = test system: methicillin-resistant Staphylococcus aureus (MRSA); details: cited from earlier work
[2] = test system: M. gallisepticum S6 strain; assay: Susceptibility assay, agar dilution (MIC, MIC99, MPC); format: cell-based, Mycoplasma gallisepticum; set-up: MPC: unit not given here
Procedure: The minimum inhibitory concentration (MIC) of amphenmulin against M. gallisepticum S6 strain was determined with reference to the protocols previously reported ([16], [17]). The broth microdilution method was performed using 96-well plates to achieve a final titer of approximately 10^7 colony-forming units (CFU)/mL of M. gallisepticum in each well. The final concentrations tested of amphenmulin ranged from 0.488 × 10^−3 to 0.125 µg/mL. Concurrently, a growth control (without drug), an end-point control (blank medium), and a sterile control (sterile broth) were also implemented. […] For the agar dilution method, M. gallisepticum was inoculated and cultured on agar plates containing a twofold dilution series of amphenmulin concentrations, and the MIC was the lowest drug concentration that inhibited growth. Additionally, following the procedure of broth microdilution, the initial culture before incubation and the samples from wells where the color remained unchanged after 48 h of incubation were subjected to 10-fold serial dilutions. Each dilution sample (10 µL) was then plated on drug-free agar for colony counting.
We also determined the minimum concentration inhibiting colony formation by 99% (MIC99) of amphenmulin against the S6 strain by slightly modifying the existing methods ([18], [19]). […] By counting the colony growth of M. gallisepticum inoculated on these drug-containing agar plates and performing linear regression with drug concentration, we calculated the amphenmulin concentration that inhibits 99% growth of the S6 strain.
Furthermore, we determined the mutant prevention concentration (MPC) of amphenmulin against the S6 strain by agar dilution method ([20]). Briefly, M. gallisepticum at exponential phase was enriched to ≥10^9 CFU/mL by centrifugation and cultured as described above. The lowest drug concentration that inhibited mycoplasma growth in the agar plate was determined as the primary MPC (MPCpr), and the determination was repeated after linearly reducing the MPCpr to 0.5 MPCpr at 10% drug concentration. The final mycoplasma-free growth concentration was the MPC. All the experiments of the above pharmacodynamic studies were conducted in triplicate.

M. gallisepticum = assay: In vitro dynamic model (one-compartment, first-order elimination); format: cell-based, Mycoplasma gallisepticum
Procedure: According to previous reports ([21][–][23]), an in vitro model compatible with M. gallisepticum growth and amphenmulin pharmacokinetics was developed ([24]). It comprised a reservoir chamber containing fresh, drug-free medium; a reaction chamber with a three-necked flask where amphenmulin interacts with M. gallisepticum, containing 300 mL of medium in the outer chamber (external compartment, EC) and 10 mL of M. gallisepticum culture (10^7 CFU/mL) in a semipermeable membrane chamber (internal compartment, IC); and a waste chamber collecting effluent, which were connected via tubing and controlled by a peristaltic pump (Fig. 2). In this model, the flow rate was calculated as 1.63 mL/min from the reaction chamber volume and amphenmulin’s elimination half-life (T1/2Ke) after intravascular administration in chickens, enabling dynamic changes in drug concentrations that simulate amphenmulin elimination in chickens and its activity against M. gallisepticum. The in vitro elimination of amphenmulin followed first-order kinetics:
where C0 is the initial amphenmulin concentration, C is the amphenmulin concentration at time t, k is the elimination rate constant, and t is the time after dosing. […]
The determination of amphenmulin in the medium referenced our laboratory’s method for extracting tiamulin ([25]) and was also detected by the HPLC-MS/MS method mentioned in the PK section.

[3] = Mycoplasmoides gallisepticum, S6STRAIN

For `C=C[C@]1(C)C[C@@H](OC(=O)CSc2ccccc2N)[C@]2(C)[C@H](C)CC[C@]3(CCC(=O)[C@H]32)[C@@H](C)[C@@H]1O` [amphenmulin, 22-(2-amino-phenylsulfanyl)-22-deoxypleuromutilin], which “antibacterial activity against MRSA compared with tiamulin” value [1] is on record?
Its value is “better antibacterial activity”.

What about the “static kill curve against MRSA, character of effect” value [1] of the same compound?
The value was “more time-dependent tendency and bacteriostatic effects”.

And the “MPC relative to MIC99” value [2]?
The value was “about 6.5 times”.

What about the MIC [2, 3] of the same compound?
The MIC was 7.8 ng/mL (≈ 0.0161 µM).

And the MIC99 [2, 3]?
The MIC99 was 7.7 ng/mL (≈ 0.0159 µM).

And the MPC ([2]; agar dilution, inoculum 10^9 CFU/mL)?
Its MPC is 0.0500.

What about the “mutation selection window (MSW)” value ([2]; between MIC99 and MPC) of the same compound?
The value was 0.77 × 10^−2–0.05 µg/mL.

What about the “mycoplasma numbers at the highest dose” value (M. gallisepticum; counting limit) of the same compound?
The value was less than 100 CFU/mL.

And the “maximum decrease of M. gallisepticum counts within 0–72 h” value (M. gallisepticum; doses of 0.1–0.5 μg/mL)?
The value was no more than 2.82 Log10CFU/mL.
